Data as given in patent US5567704A, “R-enatiomerically pure hydroxylated xanthine compounds to treat baldness” (priority 1995, dated 1996).

Assays:
[1] = test system: nu/nu mice; test: nude mouse hair studies, topical application; type: in vivo
Text: This example illustrates nude mouse hair studies involving topical application of CT1501R. Six to eight week old, female, nu/nu mice from Charles River Laboratories were housed at Biosupport Research Support Services (Seattle, Wash.) in autoclaved micro isolator units with hyperchlorinated autoclaved water, irradiated rodent chow and kept under a laminar flow hood. Caging was changed weekly, and water was changed twice weekly. The mice were acclimated for 5 days before beginning each study.
The first topical formulation was prepared by adding CT1501R to a heated hydrophilic ointment (USP) at a 1% concentration, and allowed to solidify.
Nude mice were painted twice daily for 16 days with the first topical formulation of CT1501R on the left flank and another compound in the same base on the right flank with sterile applicators. Mice were handled under the laminar flow hood with applicator wearing face mask and sterile gloves. After 16 days, one mouse was sacrificed by cervical dislocation and skin biopsies were taken of the treated areas of the shoulder/flank and from the non-treated area of the dorsal pelvis (rump). Specimens were placed in 10% buffered formalin solution. Biopsies were sent to a veterinary dermopathologist for histopathology. Six weeks following treatment, a second mouse was euthanatized and biopsied the same as the first. Samples were sent for histopathology.
In a second experiment, topical application of CT1501R was performed along with a commercial topical minoxidil preparation (Rogaine®, Upjohn) that is approved for a hair growth indication. Five to six week old, female, nu/nu mice from Bantin and Kingman Universal were housed at Biosupport Research Support Services (Seattle, Wash.) in autoclaved micro isolator units with hyper chlorinated autoclaved water, irradiated rodent chow and kept under a laminar flow hood. Caging was changed weekly, and water was changed twice weekly. Mice were acclimated for 7 days before beginning study.
CT1501R, and two other compounds were prepared in a topical formulation of 60% ETOH, 10% water and 30% PEG along with vehicle only. Minoxidil was purchased as the commercial preparation Rogaine® from a local pharmacy. Rogaine® is sold in the same formulation base. Mice were identified by unique tail markings specific for each test article. Two mice per group were treated with CT1501R and another compound. One mouse was treated with each of vehicle and minoxidil. The mice were handled under the laminar flow hood with the applicator wearing face mask and sterile gloves. Each mouse was treated twice daily with a separate sterile applicator to avoid contamination of the solutions or the mice. All mice were applied a strip of appropriate test article along the center line of the back from the base of the skull to the base of the tail, approximately 1.5 cm wide. After 34 days all mice were euthanatized by overdose of halothane anesthesia. Skin biopsies were taken from each of the 7 mice over the nape of the neck between the scapulas (approximate size was 1×1.5 cm). All specimens were blotted on gauze to remove blood and fluids, affixed to a cut piece of wooden tongue depressor, and placed specimen side down in separately marked containers with 10% buffered formalin. Specimens were shipped to a veterinary dermatopathologist for qualitative histopathological determinations.

[2] = test system: murine B-cell; test: B-cell proliferation stimulated by anti-mu antibody and/or IL-4; type: cell-based; details: anti-mu antibody crosslinked and/or IL-4, FIG. 2
Description: A B-cell proliferation assay determines the effect of the inventive compounds on inhibiting proliferation of stimulated B-cells, stimulated by an anti-mu antibody (40 μg/ml), IL-4 or PMA (2.5 nM). Ramos B-cell tumor cells or murine splenocytes can be incubated with a stimulating agent, an inventive compound and tritiated thymidine to measure inhibition of cell proliferation caused by the stimulating agent.

[3] = test system: smooth muscle cell; test: smooth muscle proliferation stimulated by PDGF and IL-1; type: cell-based
Text: CT1501R and PTX were separately added to the cells two hours prior to activation with PDGF and IL-1.

[4] = test system: lysophosphatidic acid acyl transferase (LPAAT); test: in vitro inhibition of LPAAT in 3T3 Ras-transformed fibroblasts stimulated with IL-1β; type: cell-based
Description: FIG. 17 illustrates a comparison of CT1501R, its S isomer CT1501S, and PTX on in vitro inhibition of lysophosphatidic acid acyl transferase (LPAAT), an enzyme involved in second messenger signaling. […] LPAAT activity was determined in 3T3 Ras-transformed fibroblasts stimulated with IL-1β.
One in vitro assay measures inhibition of the relevant enzymes lysophosphatidic acid acyltransferase (LPAAT) and phosphatidic acid phosphoryl hydrolase (PAPH). The assay involves incubating of target cells with a primary stimulus (e.g., a variety of cytokines, growth factors, oncogene products, putative therapeutic agents, irradiation, viral infection, toxins, bacterial infection and the products thereof, and any stimulus which, if not counteracted, has a deleterious effect on the target cell) in the presence or absence of an inventive compound at varying dosage levels. Target cells include, for example, subcellular entities, such as, microsomes derived from mesenchymal and/or ectodermal cells, particularly microsomes from marrow stromal cells or human or rat mesangial cells; microsomes or synaptosomes derived from brain; plasma membrane-enriched microsomes, plasma membranes derived as described in Bursten et at. (J. Biol. Chem. 226:20732-20743, 1991 ), or detergent-solubilized microsomes; synaptosomes, and membranes or other cell preparations solubilized using, for example, NP-40, Miranal, SDS or other neutral detergents; and detergent-solubilized, recombinant, or further purified preparations of cell proteins, including the proteins LPAAT and/or PAPH. After incubation for short periods of time, cell lipids are extracted and assayed by […] according to standard procedures. Briefly, lipids are extracted using, for example, chloroform:methanol 2:1 (v/v), and the extracts are then subjected to HPLC as described in Bursten and Harris, Biochemistry 30:6195-6203, 1991. A Rainin® mu-Porasil column is used with a 3:4 hexane:propanol organic carrier and a 1-10% water gradient during the first 10 minutes of separation. Detection of the peaks in the elution pattern is by absorption in the range of ultraviolet which detects isolated double bonds. The relevant peaks of unsaturated PA and DAG are shown in the elution pattern. It is important to note that the assay method permits discrimination between various forms of PA and DAG so that those relevant to the pathway affected by the (R) or (S) compounds of the invention can be measured directly. Confirmation of the nature of the acyl substituents of these components is accomplished using fast-atom bombardment mass spectroscopy. Thus, the relevant unsaturated (non-arachidonic) PA and DAG subspecies may be detected. The time periods employed are 5-60 seconds after stimulation with the primary stimulus, such as a cytokine. This technique permits assessment of the levels of various lipid components as a function of time.

[5] = first experiment, 1% in hydrophilic ointment, twice daily 16 days

## C[C@@H](O)CCCCn1c(=O)c2c(ncn2C)n(C)c1=O [CT1501R, (R)-1-(5-hydroxyhexyl)-3,7-dimethylxanthine]
[1]; [5]
  hair follicles, histopathology: significantly more normal appearing hair follicles than the non treated sections
  hair shafts, histopathology: Numerous hair shafts were seen exiting the follicles in the treated sections
[1]; second experiment
  hair growth promotion compared with minoxidil: at least as good at promoting hair growth in this model as minoxidil
[1]; second experiment, group of CT1501R, minoxidil and control
  visual inspection of hair: most "hairy"
[1]; second experiment, topical twice daily, 34 days
  hair follicles, subjective histopathological examination: greatest concentration of hair folicles
[2]
  inhibition of B-cell proliferation: inhibited B-cell proliferation
[3]; PDGF and IL-1, FIG. 4
  activity compared with PTX, smooth muscle cell proliferation: more active than PTX
[3]; PDGF and IL-1, drug added two hours prior, FIG. 4
  inhibition of smooth muscle cell proliferation: inhibited smooth muscle cell proliferation at the higher doses tested
[4]
  potency relative to the S enantiomer: many times more potent than the corresponding S enantiomer
  potency relative to the racemic mixture (M1): two to three time more potent than the racemic mixture
[4]; 3T3 Ras-transformed fibroblasts, IL-1β, FIG. 17
  inhibition of LPAAT enzyme activity: significantly inhibited enzyme activity
